Data published in patent US11767322B2 (BRISTOL-MYERS SQUIBB COMPANY, priority 2020, dated 2023).
Read-outs that look alike come from different tables or passages of the source.

How the values were obtained:
[1] = biological target: T1, His-GST-TVMV-hRIPK1(1-324) (Homo sapiens, UniProt Q13546); test: biochemical; type: binding; conditions: HTRF probe displacement, 1 h at rt; read-out: RIPK1 IC50
T1 construct: The coding region of human RIPK1(1-324) flanked by NdeI site at 5′ end; made in house; host or cells: Spodoptera frugiperda Sf9 insect cells (baculovirus, Bac-to-Bac)
T1 sequence (Q13546 1-324): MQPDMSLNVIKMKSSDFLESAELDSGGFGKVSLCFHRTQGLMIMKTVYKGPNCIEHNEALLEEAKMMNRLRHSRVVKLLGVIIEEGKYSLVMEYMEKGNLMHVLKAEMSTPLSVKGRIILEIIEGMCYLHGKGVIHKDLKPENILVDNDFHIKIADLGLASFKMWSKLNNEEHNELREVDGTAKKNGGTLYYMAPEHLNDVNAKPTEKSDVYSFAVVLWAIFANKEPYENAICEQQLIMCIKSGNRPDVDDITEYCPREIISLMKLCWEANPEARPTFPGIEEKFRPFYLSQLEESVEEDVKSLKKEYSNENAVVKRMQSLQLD

[2] = tested on: MLKL phosphorylation in HT29-L23 human colorectal adenocarcinoma cells; test: MLKL phosphorylation high-content assay; type: cell-based; conditions: 6 h, necroptosis induced with TNFα, SMAC mimetic and Z-VAD, 6 h, maximal inhibition defined by Nec1s
[3] = biological target: GST-tagged PIK3Cδ in complex with PIK3R1 (Homo sapiens, UniProt O00329); test: PI3Kδ HTRF binding assay; conditions: HTRF probe displacement, 1 h at rt; read-out: PIK3CD IC50
[4] = Homo sapiens, read-out: pMLKL IC50, HT29-L23 cells
[5] = read-out: pMLKL IC50, HT29-L23 cells

GST-tagged PIK3Cδ in complex with PIK3R1, sequence (O00329 whole entry): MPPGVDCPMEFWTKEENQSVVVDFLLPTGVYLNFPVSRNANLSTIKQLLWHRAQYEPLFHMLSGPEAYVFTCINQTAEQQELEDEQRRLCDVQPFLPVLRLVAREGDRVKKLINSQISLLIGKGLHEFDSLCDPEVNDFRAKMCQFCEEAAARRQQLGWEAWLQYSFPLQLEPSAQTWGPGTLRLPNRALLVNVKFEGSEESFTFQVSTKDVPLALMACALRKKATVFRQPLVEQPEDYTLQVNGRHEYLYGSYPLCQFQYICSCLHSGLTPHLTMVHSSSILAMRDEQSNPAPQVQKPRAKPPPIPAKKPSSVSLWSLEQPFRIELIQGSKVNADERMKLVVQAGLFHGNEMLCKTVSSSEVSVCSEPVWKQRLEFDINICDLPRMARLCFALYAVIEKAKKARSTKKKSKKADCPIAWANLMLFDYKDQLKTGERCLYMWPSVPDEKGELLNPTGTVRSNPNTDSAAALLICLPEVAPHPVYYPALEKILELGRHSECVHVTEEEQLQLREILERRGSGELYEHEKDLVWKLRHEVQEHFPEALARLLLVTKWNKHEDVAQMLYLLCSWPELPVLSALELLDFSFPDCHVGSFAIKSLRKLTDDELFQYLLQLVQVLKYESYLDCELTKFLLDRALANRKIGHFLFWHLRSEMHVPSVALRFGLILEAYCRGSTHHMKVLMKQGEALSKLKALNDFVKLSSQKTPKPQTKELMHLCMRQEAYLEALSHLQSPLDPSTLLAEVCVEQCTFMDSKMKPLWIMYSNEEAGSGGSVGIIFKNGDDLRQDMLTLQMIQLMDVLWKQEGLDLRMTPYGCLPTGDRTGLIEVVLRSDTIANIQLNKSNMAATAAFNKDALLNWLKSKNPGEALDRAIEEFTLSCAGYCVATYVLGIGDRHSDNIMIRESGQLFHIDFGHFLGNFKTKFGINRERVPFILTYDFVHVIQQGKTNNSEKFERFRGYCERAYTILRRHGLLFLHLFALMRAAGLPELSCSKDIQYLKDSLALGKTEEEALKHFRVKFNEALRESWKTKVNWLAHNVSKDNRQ
GST-tagged PIK3Cδ in complex with PIK3R1, sequence (P27986 whole entry partner): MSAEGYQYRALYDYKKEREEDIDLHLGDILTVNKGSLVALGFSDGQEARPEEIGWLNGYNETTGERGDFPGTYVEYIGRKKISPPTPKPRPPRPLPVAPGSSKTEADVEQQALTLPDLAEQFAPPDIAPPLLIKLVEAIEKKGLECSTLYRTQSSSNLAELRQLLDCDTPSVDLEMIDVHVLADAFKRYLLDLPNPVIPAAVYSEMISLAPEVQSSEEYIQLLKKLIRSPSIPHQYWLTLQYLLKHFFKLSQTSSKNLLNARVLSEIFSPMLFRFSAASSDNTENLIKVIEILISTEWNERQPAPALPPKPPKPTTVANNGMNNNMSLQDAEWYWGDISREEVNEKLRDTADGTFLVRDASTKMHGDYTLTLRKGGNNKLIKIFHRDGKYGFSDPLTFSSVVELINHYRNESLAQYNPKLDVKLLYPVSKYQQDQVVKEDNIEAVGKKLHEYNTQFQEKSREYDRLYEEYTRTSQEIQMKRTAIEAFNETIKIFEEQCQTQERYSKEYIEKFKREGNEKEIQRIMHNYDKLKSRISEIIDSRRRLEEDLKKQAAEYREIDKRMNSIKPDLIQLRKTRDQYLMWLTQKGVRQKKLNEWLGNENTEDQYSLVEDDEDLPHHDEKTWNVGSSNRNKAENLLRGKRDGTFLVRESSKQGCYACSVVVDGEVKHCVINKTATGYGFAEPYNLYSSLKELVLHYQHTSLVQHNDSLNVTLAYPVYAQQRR

Row | Compound | IC50 [1] [nM] | IC50 [2, 4] [nM] | IC50 [3] [µM] | IC50 [2, 5] [nM]
1 | Nc1nc2cc(-c3ccc(Cl)c(C(=O)NCC(F)(F)[C@@H](F)c4ccc(F)cc4)c3F)ccn2n1 [Example 282, (S)-3-(2-amino-[1,2,4]triazolo[1,5-a]pyridin-7-yl)-6-chloro-2-fluoro-N-(2,2,3-trifluoro-3-(4-fluorophenyl)propyl)benzamide] | 2.2 | 1.1 | > 15 | –
2 | Cc1ccc(-c2ccn3nc(N)nc3c2)c(F)c1C(=O)NC(CF)CC(O)c1ccc(F)cc1 (single isomer, unassigned) [Example 27, 3-(2-amino-[1,2,4]triazolo[1,5-a]pyridin-7-yl)-2-fluoro-N-(1-fluoro-4-(4-fluorophenyl)-4-hydroxybutan-2-yl)-6-methylbenzamide] | 60 | – | > 15 | 198
3 | Cc1ccc(-c2ccn3nc(N)nc3c2)c(F)c1C(=O)NCCC(c1ccccc1)C(F)(F)F (single isomer, unassigned) [Example 13, 3-(2-amino-[1,2,4]triazolo[1,5-a]pyridin-7-yl)-2-fluoro-6-methyl-N-(4,4,4-trifluoro-3-phenylbutyl)benzamide] | 0.6 | – | > 15 | 27
4 | Cc1ccc(-c2ccn3nc(N)nc3c2)c(F)c1C(=O)NCCC(O)c1ccccc1F (single isomer, unassigned) [Example 71, 3-(2-amino-[1,2,4]triazolo[1,5-a]pyridin-7-yl)-2-fluoro-N-(3-(2-fluorophenyl)-3-hydroxypropyl)-6-methylbenzamide] | 18 | – | > 15 | 21
5 | Cc1ccc(-c2ccn3nc(N)nc3c2)c(F)c1C(=O)NCCC(C)(O)c1ccc(Cl)cc1 (single isomer, unassigned) [Example 59, 3-(2-amino-[1,2,4]triazolo[1,5-a]pyridin-7-yl)-N-(3-(4-chlorophenyl)-3-hydroxybutyl)-2-fluoro-6-methylbenzamide] | 2.5 | 1.2 | > 15 | –
6 | CCc1ccc(-c2ccn3nc(N)nc3c2)c(F)c1C(=O)NCC(F)(F)C(O)c1ccc(F)cn1 (single isomer, unassigned) [Example 266, 3-(2-amino-[1,2,4]triazolo[1,5-a]pyridin-7-yl)-N-(2,2-difluoro-3-(5-fluoropyridin-2-yl)-3-hydroxypropyl)-6-ethyl-2-fluorobenzamide] | 13 | 2.4 | > 15 | –
7 | Cc1ccc(-c2ccn3nc(N)nc3c2)c(F)c1C(=O)NC(C)CC(O)c1ccc(F)cc1 (stereo not drawn) [Example 35, 3-(2-amino-[1,2,4]triazolo[1,5-a]pyridin-7-yl)-2-fluoro-N-(4-(4-fluorophenyl)-4-hydroxybutan-2-yl)-6-methylbenzamide] | 2 | 0.9 | 3.9 | –
8 | Nc1nc2cc(-c3ccc(Cl)c(C(=O)NCC[C@@H](O)c4ccc(Cl)cc4)c3F)ccn2n1 [Example 154, (R)-3-(2-amino-[1,2,4]triazolo[1,5-a]pyridin-7-yl)-6-chloro-N-(3-(4-chlorophenyl)-3-hydroxypropyl)-2-fluorobenzamide] | 4.7 | 1.4 | > 15 | –
9 | Cc1ccc(-c2ccn3nc(N)nc3c2)c(F)c1C(=O)NCCC(c1ccccc1)C(F)(F)F (racemic) [Example 11, 3-(2-amino-[1,2,4]triazolo[1,5-a]pyridin-7-yl)-2-fluoro-6-methyl-N-(4,4,4-trifluoro-3-phenylbutyl)benzamide] | 1.2 | 5.9 | > 15 | –
10 | COc1ccc(-c2ccn3nc(N)nc3c2)c(F)c1C(=O)NCC(F)(F)C(O)c1ccc(Cl)c(Cl)c1 (stereo not drawn) [Example 267, 3-{2-amino-[1,2,4]triazolo[1,5-a]pyridin-7-yl}-N-[3-(3,4-dichlorophenyl)-2,2-difluoro-3-hydroxypropyl]-2-fluoro-6-methoxybenzamide] | 2.8 | – | > 15 | 1
11 | Nc1nc2cc(-c3ccc(Cl)c(C(=O)NCC[C@H](O)c4ccc(Cl)cc4)c3F)ccn2n1 [Example 153, (S)-3-(2-amino-[1,2,4]triazolo[1,5-a]pyridin-7-yl)-6-chloro-N-(3-(4-chlorophenyl)-3-hydroxypropyl)-2-fluorobenzamide] | 4.1 | 8.3 | > 15 | –
